Measured values published in US9938273B2 (Plexxikon Inc., priority 2015, dated 2018).
pIC50: −log10 of the molar value.

Legend:
[1] = test system: MOLM-14 D835Y cells, FLT3 ITD and FLT3 D835Y; experiment: Cell proliferation assay (CellTiter-Glo), MOLM-14 D835Y; assay type: cell-based; conditions: Homo sapiens, 72 h, 3d-Growth, GMean
How it was run: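 MOLM-14 AML cells (endogenous FLT3 ITD, AC220-selected D835Y or F691L variants) or murine Ba/F3 expressing full-length FLT3 ITD/D835Y, without IL-3 for FLT3 dependence, 1×10^4 cells/well. Eight-point 1:3 series from 1 μM final, 0.2% DMSO, 3 days at 37 °C. CellTiter-Glo luminescence (ATP) gave IC50.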

FLT3-D835Y = biological target: T1, FLT3-D835Y (Homo sapiens, UniProt P36888, D835Y); experiment: AlphaScreen kinase assay with recombinant enzyme, FLT3-D835Y; assay type: biochemical; conditions: 8pt, GMean
T1 construct: purchased Invitrogen PV3967
T1 sequence (P36888 27-993 D835Y): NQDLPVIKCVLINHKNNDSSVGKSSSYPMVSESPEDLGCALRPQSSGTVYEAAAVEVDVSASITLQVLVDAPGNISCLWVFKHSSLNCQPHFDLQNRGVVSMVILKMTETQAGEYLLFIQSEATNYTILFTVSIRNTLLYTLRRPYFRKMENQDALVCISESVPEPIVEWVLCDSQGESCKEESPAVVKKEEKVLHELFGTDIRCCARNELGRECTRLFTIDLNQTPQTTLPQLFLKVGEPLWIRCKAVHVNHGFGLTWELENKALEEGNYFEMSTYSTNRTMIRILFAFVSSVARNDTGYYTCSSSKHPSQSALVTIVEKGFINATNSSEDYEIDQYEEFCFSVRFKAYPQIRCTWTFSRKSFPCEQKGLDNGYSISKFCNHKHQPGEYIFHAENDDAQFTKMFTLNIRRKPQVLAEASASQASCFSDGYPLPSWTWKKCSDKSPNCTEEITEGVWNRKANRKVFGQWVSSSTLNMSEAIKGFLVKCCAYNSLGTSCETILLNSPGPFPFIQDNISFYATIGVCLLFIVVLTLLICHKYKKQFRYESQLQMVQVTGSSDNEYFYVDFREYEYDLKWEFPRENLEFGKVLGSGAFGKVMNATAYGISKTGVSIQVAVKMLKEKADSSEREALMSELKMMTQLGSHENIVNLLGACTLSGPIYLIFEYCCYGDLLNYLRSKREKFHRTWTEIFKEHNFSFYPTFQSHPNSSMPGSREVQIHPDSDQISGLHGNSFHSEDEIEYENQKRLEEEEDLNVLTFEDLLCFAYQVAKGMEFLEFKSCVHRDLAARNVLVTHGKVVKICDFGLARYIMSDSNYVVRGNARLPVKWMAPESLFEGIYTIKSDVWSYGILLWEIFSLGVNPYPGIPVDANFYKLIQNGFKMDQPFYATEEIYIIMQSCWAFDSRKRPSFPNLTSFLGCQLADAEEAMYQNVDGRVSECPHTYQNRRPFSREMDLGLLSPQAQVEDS
How it was run: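 Recombinant kinase phosphorylates biotinylated poly(Glu4-Tyr) peptide (30 nM final); streptavidin donor and anti-phosphotyrosine PY20 acceptor beads (10 μg/mL final) give a 580 nm proximity signal on 680 nm excitation. IC50 determinations used a final concentration of 10 μM for FLT3-D835Y/FLT3-ITD and 100 μM for c-KIT.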

pIC50 [1]	pIC50 (FLT3-D835Y)	SMILES
5.00 to 10.00	5.00 to 10.00	N#CCCNC(=O)c1cccc(-c2cnc3[nH]c(-c4ccccc4)c(Br)c3c2)n1 [Compound P-0147, 6-(3-bromo-2-phenyl-1H-pyrrolo[2,3-b]pyridin-5-yl)-N-(2-cyanoethyl)pyridine-2-carboxamide]
5.00 to 10.00	5.00 to 10.00	N#CC1(CNC(=O)c2cccc(-c3cnc4[nH]c(-c5ccccc5)c(Cl)c4c3)n2)CC1 [Compound P-0148, 6-(3-chloro-2-phenyl-1H-pyrrolo[2,3-b]pyridin-5-yl)-N-[(1-cyanocyclopropyl)methyl]pyridine-2-carboxamide]
5.00 to 10.00	5.00 to 10.00	O=C(NC1(C(F)(F)F)CCCC1)c1cccc(-c2cnc3[nH]c(-c4ccccc4)cc3c2)n1 [Compound P-0149, 6-(2-phenyl1H-pyrrolo[2,3-b]pyridin-5-yl)-N-[1-(trifluoromethyl)cyclopentyl]pyridine-2-carboxamide]
5.00 to 10.00	5.00 to 10.00	CC(C)(O)CNC(=O)c1cccc(-c2cnc3[nH]c(-c4ccccc4)cc3c2)n1 [Compound P-0150, N-(2-hydroxy-2-methyl-propyl)-6-(2-phenyl-1H-pyrrolo[2,3-b]pyridin-5-yl)pyridine-2-carboxamide]
5.00 to 10.00	5.00 to 10.00	O=C(NC1(CO)CC1)c1cccc(-c2cnc3[nH]c(-c4ccccc4)cc3c2)n1 [Compound P-0151, N-[1-(hydroxymethyl)cyclopropyl]-6-(2-phenyl-1H-pyrrolo[2,3-b]pyridin-5-yl)pyridine-2-carboxamide]
5.00 to 10.00	5.00 to 10.00	CC(C)(C#N)CNC(=O)c1cccc(-c2cnc3[nH]c(-c4ccnc(C5CC5)c4)cc3c2)n1 [Compound P-0152, N-(2-cyano-2-methyl-propyl)-6-[2-(2-cyclopropyl-4-pyridyl)-1H-pyrrolo[2,3-b]pyridin-5-yl]pyridine-2-carboxamide]
5.00 to 10.00	5.00 to 10.00	CC(C)(C#N)CNC(=O)c1cccc(-c2cnc3[nH]c(-c4cnn(C(F)F)c4)cc3c2)n1 [Compound P-0153, N-(2-cyano-2-methyl-propyl)-6-[2-[1-(difluoromethyl)pyrazol-4-yl]-1H-pyrrolo[2,3-b]pyridin-5-yl]pyridine-2-carboxamide]
5.00 to 10.00	5.00 to 10.00	COc1cc(-c2cc3cc(-c4cccc(C(=O)NCC(C)(C)C#N)n4)cnc3[nH]2)ccn1 [Compound P-0154, N-(2-cyano-2-methyl-propyl)-6-[2-(2-methoxy-4-pyridyl)-1H-pyrrolo[2,3-b]pyridin-5-yl]pyridine-2-carboxamide]
5.00 to 10.00	5.00 to 10.00	Cn1cc(-c2cc3cc(-c4cccc(C(=O)NCC(C)(C)C#N)n4)cnc3[nH]2)ccc1=O [Compound P-0155, N-(2-cyano-2-methyl-propyl)-6-[2-(1-methyl-6-oxo-3-pyridyl)-1H-pyrrolo[2,3-b]pyridin-5-yl]pyridine-2-carboxamide]
5.00 to 10.00	5.00 to 10.00	O=C(NC1(C(F)(F)F)CC1)c1cccc(-c2cnc3[nH]c(-c4ccccc4)cc3c2)n1 [Compound P-0156, 6-(2-phenyl-1H-pyrrolo[2,3-b]pyridin-5-yl)-N-[1-(trifluoromethyl)cyclopropyl]pyridine-2-carboxamide]
5.00 to 10.00	5.00 to 10.00	CC(C)(C#N)CNC(=O)c1cccc(-c2cnc3[nH]c(C4=CCC(F)(F)CC4)cc3c2)n1 [Compound P-0157, N-(2-cyano-2-methyl-propyl)-6-[2-(4,4-difluorocyclohexen-1-yl)-1H-pyrrolo[2,3-b]pyridin-5-yl]pyridine-2-carboxamide]
5.00 to 10.00	5.00 to 10.00	CC(C)(C#N)CNC(=O)c1cccc(-c2cnc3[nH]c(C4=CCSCC4)cc3c2)n1 [Compound P-0159, N-(2-cyano-2-methyl-propyl)-6-[2-(3,6-dihydro-2H-thiopyran-4-yl)-1H-pyrrolo[2,3-b]pyridin-5-yl]pyridine-2-carboxamide]
5.00 to 10.00	5.00 to 10.00	CC(C)(C#N)CNC(=O)c1cccc(-c2cnc3[nH]c(C4=CCS(=O)(=O)CC4)cc3c2)n1 [Compound P-0160, N-(2-cyano-2-methyl-propyl)-6-[2-(1,1-dioxo-3,6-dihydro-2H-thiopyran-4-yl)-1H-pyrrolo[2,3-b]pyridin-5-yl]pyridine-2-carboxamide]
5.00 to 10.00	5.00 to 10.00	CC(C)(C#N)CNC(=O)c1cccc(-c2cnc3[nH]c(C4=CC[S+]([O-])CC4)cc3c2)n1 (stereo not drawn) [Compound P-0161, N-(2-cyano-2-methyl-propyl)-6-[2-(1-oxo-3,6-dihydro-2H-thiopyran-4-yl)-1H-pyrrolo[2,3-b]pyridin-5-yl]pyridine-2-carboxamide]
5.00 to 10.00	5.00 to 10.00	CC(C)(C#N)CNC(=O)c1cccc(-c2cnc3[nH]c(C4=CCN(C(=O)C5CC5)CC4)cc3c2)n1 [Compound P-0162, N-(2-cyano-2-methyl-propyl)-6-[2-[1-(cyclopropanecarbonyl)-3,6-dihydro-2H-pyridin-4-yl]-1H-pyrrolo[2,3-b]pyridin-5-yl]pyridine-2-carboxamide]
5.00 to 10.00	5.00 to 10.00	Cc1cc(-c2cc3cc(-c4cccc(C(=O)NC(C)(C)C#N)n4)cnc3[nH]2)cnn1 [Compound P-0163, N-(1-cyano-1-methyl-ethyl)-6-[2-(6-methylpyridazin-4-yl)-1H-pyrrolo[2,3-b]pyridin-5-yl]pyridine-2-carboxamide]
5.00 to 10.00	5.00 to 10.00	CC(C)(C#N)NC(=O)c1cccc(-c2cnc3[nH]c(-c4cnn(C(F)F)c4)cc3c2)n1 [Compound P-0164, N-(2-cyanopropan-2-yl)-6-(2-(1-(difluoromethyl)-1H-pyrazol-4-yl)-1H-pyrrolo[2,3-b]pyridin-5-yl)picolinamide]
5.00 to 10.00	5.00 to 10.00	CC(C)(C#N)NC(=O)c1cccc(-c2cnc3[nH]c(-c4cnn(C5CC5)c4)cc3c2)n1 [Compound P-0165, N-(1-cyano-1-methyl-ethyl)-6-[2-(1-cyclopropylpyrazol-4-yl)-1H-pyrrolo[2,3-b]pyridin-5-yl]pyridine-2-carboxamide]
5.00 to 10.00	5.00 to 10.00	CC(C)(C#N)NC(=O)c1cccc(-c2cnc3[nH]c(-c4cnc(C5CC5)nc4)cc3c2)n1 [Compound P-0166, N-(1-cyano-1-methyl-ethyl)-6-[2-(2-cyclopropylpyrimidin-5-yl)-1H-pyrrolo[2,3-b]pyridin-5-yl]pyridine-2-carboxamide]
5.00 to 10.00	5.00 to 10.00	CC(C)(C#N)NC(=O)c1cccc(-c2cnc3[nH]c(-c4ccc(C5CC5)nc4)cc3c2)n1 [Compound P-0168, N-(1-cyano-1-methyl-ethyl)-6-[2-(6-cyclopropyl-3-pyridyl)-1H-pyrrolo[2,3-b]pyridin-5-yl]pyridine-2-carboxamide]
5.00 to 10.00	5.00 to 10.00	Cc1nc(C(C)C)sc1-c1cc2cc(-c3cccc(C(=O)NC(C)(C)C#N)n3)cnc2[nH]1 [Compound P-0169, N-(1-cyano-1-methyl-ethyl)-6-[2-(2-isopropyl-4-methyl-thiazol-5-yl)-1H-pyrrolo[2,3-b]pyridin-5-yl]pyridine-2-carboxamide]
5.00 to 10.00	5.00 to 10.00	CC(C)(C#N)NC(=O)c1cccc(-c2cnc3[nH]c(-c4cnn(CCC#N)c4)cc3c2)n1 [Compound P-0170, 6-[2-[1-(2-cyanoethyl)pyrazol-4-yl]-1H-pyrrolo[2,3-b]pyridin-5-yl]-N-(1-cyano-1-methyl-ethyl)pyridine-2-carboxamide]
5.00 to 10.00	5.00 to 10.00	CC(C)(C#N)NC(=O)c1cccc(-c2cnc3[nH]c(-c4cnn(Cc5ccccc5)c4)cc3c2)n1 [Compound P-0171, 6-[2-(1-benzylpyrazol-4-yl)-1H-pyrrolo[2,3-b]pyridin-5-yl]-N-(1-cyano-1-methyl-ethyl)pyridine-2-carboxamide]
5.00 to 10.00	5.00 to 10.00	COCCn1cc(-c2cc3cc(-c4cccc(C(=O)NC(C)(C)C#N)n4)cnc3[nH]2)cn1 [Compound P-0172, N-(1-cyano-1-methyl-ethyl)-6-[2-[1-(2-methoxyethyl)pyrazol-4-yl]-1H-pyrrolo[2,3-b]pyridin-5-yl]pyridine-2-carboxamide]
